In patent US20110034424A1, “METHOD FOR THE LONG TERM NSAID USE” (SUCAMPO AG, priority 2009, published 2011):

Assays:
[1] = test system: patients with osteoarthritis and/or rheumatoid arthritis; test: 12-week double-blinded, randomized, dose-ranging, placebo-controlled phase 2 trial of cobiprostone with naproxen; assay type: in vivo, human; conditions: for Drug-related gastrointestinal adverse event rate / Median number of days in the treatment period / Related adverse event: diarrhea / Related adverse event: gastritis / Related adverse event: nausea / Related overall adverse event rate / Withdrawal rate from the trial due to an adverse event / Retention rate at Week 8 / Retention rate at Week 12: naproxen 500 mg twice a day
Experimental: A total of 124 patients with osteoarthritis and/or rheumatoid arthritis were enrolled in 12-week, double-blinded, randomized, dose-ranging and placebo-controlled phase 2 trial. All patients in the trial received 500 mg of naproxen twice a day. There were four treatment cohorts: one cohort received placebo while the other three cohorts received 18 mcg of cobiprostone either once, twice or three times a day (daily totals of 18, 36 or 54 mcg, respectively).
Retention rate and withdrawal rate were evaluated by the following definitions.
Retention rate: The number of intent-to-treat subjects that remained in the trial at a specified week.
Withdrawal Rate: The number of randomized subjects that discontinued the trial. The reasons for discontinuation were:
b. Discontinued due to ulcer
The withdrawal rate can be expressed/calculated for a single reason such as adverse events, or for any combination of the discontinuation reasons.

[2] = test system: ulcers induced by indomethacin and by stress; conditions: cited from earlier work

In the case of `CC[C@H](C)CC(F)(F)[C@@]1(O)CC[C@H]2[C@@H](CC(=O)[C@@H]2CCCCCCC(=O)O)O1` [cobiprostone, 7{(2R,4aR,5R,7aR)-2-[(3S)-1,1-difluoro-3-methylpentyl]-2-hydroxy-6-oxooctahydrocyclopenta[b]pyran-5-yl}heptanoic acid], the “Retention rates at Week 12 compared to naproxen with placebo” value ([1]; Week 12, 18, 36 and 54 mcg/day, dose-dependent increase) is reported as “statistically significant”, the “Drug-related gastrointestinal adverse event rate” value ([1]; cobiprostone 18 mcg/day) is reported as 60.0% and the “Median number of days in the treatment period” value (“Median number of days” below) ([1]; cobiprostone 18 mcg/day) is reported as 60.0 days. For the same compound, the “Related adverse event: diarrhea” value ([1]; cobiprostone 18 mcg/day) was 13.3%, the “Related adverse event: gastritis” value ([1]; cobiprostone 18 mcg/day) was 13.3% and the “Related adverse event: nausea” value ([1]; cobiprostone 18 mcg/day) was 10.0%. For the same compound, the “Related overall adverse event rate” value ([1]; cobiprostone 18 mcg/day) was 60.0%, the “Withdrawal rate from the trial due to an adverse event” value (“Withdrawal rate from the trial due” for short) ([1]; cobiprostone 18 mcg/day) was 13.3% and the “Retention rate at Week 8” value ([1]; cobiprostone 18 mcg/day) was 67%. For the same compound, the “Retention rate at Week 12” value ([1]; cobiprostone 18 mcg/day, Week 12) was 47%, the “Drug-related gastrointestinal adverse event rate” value ([1]; cobiprostone 36 mcg/day) was 67.7% and the “Median number of days” value ([1]; cobiprostone 36 mcg/day) was 82.0 days. The “Related adverse event: diarrhea” value ([1]; cobiprostone 36 mcg/day) was 32.3%, the “Related adverse event: gastritis” value ([1]; cobiprostone 36 mcg/day) was 6.5% and the “Related adverse event: nausea” value ([1]; cobiprostone 36 mcg/day) was 16.1%. The “Related overall adverse event rate” value ([1]; cobiprostone 36 mcg/day) was 71.0%, the “Withdrawal rate from the trial due” value ([1]; cobiprostone 36 mcg/day) was 16.1% and the “Retention rate at Week 8” value ([1]; cobiprostone 36 mcg/day) was 66%. For the same compound, the “Retention rate at Week 12” value ([1]; cobiprostone 36 mcg/day, Week 12) was 52%, the “Drug-related gastrointestinal adverse event rate” value ([1]; cobiprostone 54 mcg/day) was 67.7% and the “Median number of days” value ([1]; cobiprostone 54 mcg/day) was 83.0 days. The “Related adverse event: diarrhea” value ([1]; cobiprostone 54 mcg/day) was 35.5%, the “Related adverse event: gastritis” value ([1]; cobiprostone 54 mcg/day) was 9.7% and the “Related adverse event: nausea” value ([1]; cobiprostone 54 mcg/day) was 16.1%. The “Related overall adverse event rate” value ([1]; cobiprostone 54 mcg/day) was 67.7%, the “Withdrawal rate from the trial due” value ([1]; cobiprostone 54 mcg/day) was 16.1% and the “Retention rate at Week 8” value ([1]; cobiprostone 54 mcg/day) was 90%. The “Retention rate at Week 12” value ([1]; cobiprostone 54 mcg/day, Week 12) was 77%, the “Tolerability in patients receiving NSAID therapy” value ([1]; overall, 18-54 mcg/day with naproxen 500 mg twice a day) was “well tolerated” and the “Formation of ulcers induced by indomethacin” value ([2]; animal studies, indomethacin-induced ulcers) was “protected against formation of ulcers”. The “Formation of ulcers induced by stress” value ([2]; animal studies, stress-induced ulcers) was “protected against formation of ulcers” and the “Safety in animal studies” value [2] was “acceptable safety”.
